Legend:
TNFα = test: cells; format: cell-based, human; conditions: Homo sapiens, Monocyte, LPS-stimulated human monocytes, TNFα content; read-out: EC50 TNF
IRAK4 enzyme = IRAK4 enzyme (Homo sapiens (Human), UniProt Q9NWZ3); test: biochemical; format: biochemical; conditions: IRAK4 enzyme, TR-FRET, 500 μM ATP
Chain of IRAK4 enzyme (Q9NWZ3 whole entry): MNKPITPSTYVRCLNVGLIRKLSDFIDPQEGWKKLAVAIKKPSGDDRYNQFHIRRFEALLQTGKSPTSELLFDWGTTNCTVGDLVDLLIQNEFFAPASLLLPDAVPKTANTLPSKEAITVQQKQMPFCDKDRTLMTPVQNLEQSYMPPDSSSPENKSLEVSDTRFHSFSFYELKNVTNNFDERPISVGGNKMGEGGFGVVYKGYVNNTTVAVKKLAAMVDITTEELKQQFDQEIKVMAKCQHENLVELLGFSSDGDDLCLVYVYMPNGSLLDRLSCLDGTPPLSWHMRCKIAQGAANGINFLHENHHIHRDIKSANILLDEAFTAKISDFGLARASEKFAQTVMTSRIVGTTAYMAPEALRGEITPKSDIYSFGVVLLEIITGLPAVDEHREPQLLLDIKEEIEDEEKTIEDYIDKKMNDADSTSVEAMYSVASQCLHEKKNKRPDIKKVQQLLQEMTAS

## CN(C)S(=O)(=O)N1CCC(Nc2cc(-c3ccc4cc(C#N)cnn34)ncc2C(=O)NC[C@@H](F)C(C)(C)O)CC1 [Example 244, (R)-6-(3-cyanopyrrolo[1,2-b]pyridazin-7-yl)-4-((1-(N,N-dimethylsulfamoyl)piperidin-4-yl)amino)-N-(2-fluoro-3-hydroxy-3-methylbutyl) nicotinamide]
TNFα
  EC50: 102 nM
IRAK4 enzyme
  IC50: 1 nM

## CN1CC2C[C@@H](Nc3cc(-c4ccc5cc(C#N)cnn45)ncc3C(=O)NC[C@@H](F)C(C)(C)O)C[C@@H]2C1 (stereo partly drawn) [Example 245, 6-(3-cyanopyrrolo[1,2-b]pyridazin-7-yl)-N-((R)-2-fluoro-3-hydroxy-3-methylbutyl)-4-(((3aR,5s,6aS)-2-methyloctahydrocyclopenta[c]pyrrol-5-yl)amino)nicotinamide]
TNFα
  EC50: 92 nM
IRAK4 enzyme
  IC50: 2 nM

## CC(=O)N1C[C@H]2C[C@@H](Nc3cc(-c4ccc5cc(C#N)cnn45)ncc3C(=O)NC[C@@H](F)C(C)(C)O)C[C@H]2C1 [Example 246, 4-(((3aR,5r,6aS)-2-acetyl-octahydrocyclopenta[c]pyrrol-5-yl)amino)-6-(3-cyanopyrrolo[1,2-b]pyridazin-7-yl)-N-((R)-2-fluoro-3-hydroxy-3-methylbutyl)nicotinamide]
TNFα
  EC50: 637 nM
IRAK4 enzyme
  IC50: 17 nM

## CC(C)(O)[C@H](F)CNC(=O)c1cnc(-c2ccc3cc(C#N)cnn23)cc1N[C@@H]1C[C@@H]2CN(S(C)(=O)=O)C[C@@H]2C1 [Example 247, 6-(3-cyanopyrrolo[1,2-b]pyridazin-7-yl)-N-((R)-2-fluoro-3-hydroxy-3-methylbutyl)-4-(((3aR,5r,6aS)-2-(methylsulfonyl)octahydro-cyclopenta[c]pyrrol-5-yl)amino)nicotinamide]
TNFα
  EC50: 262 nM
IRAK4 enzyme
  IC50: 6 nM

## CC(C)(O)[C@H](F)CNC(=O)c1cnc(-c2ccc3cc(C#N)cnn23)cc1N[C@H]1C[C@H]2CNC[C@H]2C1 [Example 248, 6-(3-cyanopyrrolo[1,2-b]pyridazin-7-yl)-N-((R)-2-fluoro-3-hydroxy-3-methyl-butyl)-4-(((3aR,5r,6aS)-octahydrocyclopenta[c]pyrrol-5-yl)amino) nicotinamide]
TNFα
  EC50: 545 nM
IRAK4 enzyme
  IC50: 3 nM

## CC(=O)N1C[C@H]2C[C@H](Nc3cc(-c4ccc5cc(C#N)cnn45)ncc3C(=O)NC[C@@H](F)C(C)(C)O)C[C@H]2C1 [Example 249, 4-(((3aR,5s,6aS)-2-acetyl-octahydrocyclopenta[c]pyrrol-5-yl)amino)-6-(3-cyanopyrrolo[1,2-b]pyridazin-7-yl)-N-((R)-2-fluoro-3-hydroxy-3-methylbutyl) nicotinamide]
TNFα
  EC50: 100 nM
IRAK4 enzyme
  IC50: 2 nM

## CC(C)(O)[C@H](F)CNC(=O)c1cnc(-c2ccc3cc(C#N)cnn23)cc1N[C@H]1C[C@@H]2CN(S(C)(=O)=O)C[C@@H]2C1 [Example 250, 6-(3-cyanopyrrolo[1,2-b]pyridazin-7-yl)-N-((R)-2-fluoro-3-hydroxy-3-methylbutyl)-4-(((3aR,5s,6aS)-2-(methylsulfonyl)octa-hydrocyclopenta[c]pyrrol-5-yl)amino) nicotinamide]
TNFα
  EC50: 37 nM
IRAK4 enzyme
  IC50: 1 nM

## CC(C)(O)[C@H](F)CNC(=O)c1cnc(-c2ccc3cc(C#N)cnn23)cc1N[C@@H]1C[C@H]2CNC[C@H]2C1 [Example 251, 6-(3-cyanopyrrolo[1,2-b]pyridazin-7-yl)-N-((R)-2-fluoro-3-hydroxy-3-methylbutyl)-4-(((3aR,5s,6aS)-octa-hydrocyclopenta[c]pyrrol-5-yl)amino) nicotinamide]
TNFα
  EC50: 117 nM
IRAK4 enzyme
  IC50: 1 nM

## CC(C)Nc1cc(-c2ccc3cc(C#N)cnn23)ncc1C(=O)NCCC(C)(C)N [Example 252, N-(3-amino-3-methyl-butyl)-6-(3-cyano-pyrrolo[1,2-b]pyridazin-7-yl)-4-(isopropylamino) nicotinamide]
TNFα
  EC50: 78 nM
IRAK4 enzyme
  IC50: 2 nM

## CC(=O)N1CCC[C@@H](Nc2cc(-c3ccc4cc(C#N)cnn34)ncc2C(=O)NC[C@@H](F)C(C)(C)O)C1 [Example 253, 4-(((R)-1-acetylpiperidin-3-yl)amino)-6-(3-cyano-pyrrolo[1,2-b]pyridazin-7-yl)-N-((R)-2-fluoro-3-hydroxy-3-methylbutyl)nicotinamide]
TNFα
  EC50: 510 nM
IRAK4 enzyme
  IC50: 3 nM

## CC(C)(O)[C@H](F)CNC(=O)c1cnc(-c2ccc3cc(C#N)cnn23)cc1N[C@@H]1CCCN(S(C)(=O)=O)C1 [Example 254, 6-(3-cyanopyrrolo[1,2-b]pyridazin-7-yl)-N-((R)-2-fluoro-3-hydroxy-3-methylbutyl)-4-(((R)-1-(methylsulfonyl)piperidin-3-yl)amino)nicotinamide]
TNFα
  EC50: 2020 nM
IRAK4 enzyme
  IC50: 17 nM

## CC(C)(O)[C@H](F)CNC(=O)c1cnc(-c2ccc3cc(C#N)cnn23)cc1N[C@@H]1CCCNC1 [Example 255, 6-(3-cyanopyrrolo[1,2-b]pyridazin-7-yl)-N-((R)-2-fluoro-3-hydroxy-3-methylbutyl)-4-(((R)-piperidin-3-yl)amino)nicotinamide]
TNFα
  EC50: 1270 nM
IRAK4 enzyme
  IC50: 14 nM

## CC(=O)N1CCC[C@H](Nc2cc(-c3ccc4cc(C#N)cnn34)ncc2C(=O)NC[C@@H](F)C(C)(C)O)C1 [Example 256, 4-(((S)-1-acetylpiperidin-3-yl)amino)-6-(3-cyano-pyrrolo[1,2-b]pyridazin-7-yl)-N-((R)-2-fluoro-3-hydroxy-3-methylbutyl)nicotinamide]
TNFα
  EC50: 389 nM
IRAK4 enzyme
  IC50: 2 nM

## CC(C)(O)[C@H](F)CNC(=O)c1cnc(-c2ccc3cc(C#N)cnn23)cc1N[C@H]1CCCN(S(C)(=O)=O)C1 [Example 257, 6-(3-cyanopyrrolo[1,2-b]pyridazin-7-yl)-N-((R)-2-fluoro-3-hydroxy-3-methylbutyl)-4-(((S)-1-(methylsulfonyl)piperidin-3-yl)amino)nicotinamide]
TNFα
  EC50: 129 nM
IRAK4 enzyme
  IC50: 1 nM

## CC(C)(O)[C@H](F)CNC(=O)c1cnc(-c2ccc3cc(C#N)cnn23)cc1N[C@H]1CCCNC1 [Example 258, 6-(3-cyanopyrrolo[1,2-b]pyridazin-7-yl)-N-((R)-2-fluoro-3-hydroxy-3-methylbutyl)-4-(((S)-piperidin-3-yl)amino)nicotinamide]
TNFα
  EC50: 83 nM
IRAK4 enzyme
  IC50: 1 nM

## CN1CCC[C@@H](Nc2cc(-c3ccc4cc(C#N)cnn34)ncc2C(=O)NC[C@@H](F)C(C)(C)O)C1 [Example 259, 6-(3-cyanopyrrolo[1,2-b]pyridazin-7-yl)-N-((R)-2-fluoro-3-hydroxy-3-methylbutyl)-4-(((R)-1-methylpiperidin-3-yl)amino)nicotinamide]
TNFα
  EC50: 152 nM
IRAK4 enzyme
  IC50: 6 nM

## CN1CCC[C@H](Nc2cc(-c3ccc4cc(C#N)cnn34)ncc2C(=O)NC[C@@H](F)C(C)(C)O)C1 [Example 260, 6-(3-cyanopyrrolo[1,2-b]pyridazin-7-yl)-N-((R)-2-fluoro-3-hydroxy-3-methylbutyl)-4-(((S)-1-methylpiperidin-3-yl)amino)nicotinamide]
TNFα
  EC50: 165 nM
IRAK4 enzyme
  IC50: 8 nM

## CC(C)(O)[C@H](F)CNC(=O)c1cnc(-c2ccc3cc(C#N)cnn23)cc1N[C@H]1CCC[C@H]1O [Example 261, 6-(3-cyanopyrrolo[1,2-b]pyridazin-7-yl)-N-((R)-2-fluoro-3-hydroxy-3-methylbutyl)-4-(((1S,2R)-2-hydroxycyclopentyl)amino)nicotinamide]
TNFα
  EC50: 41 nM
IRAK4 enzyme
  IC50: < 1 nM

## CC(C)(O)[C@H](F)CNC(=O)c1cnc(-c2ccc3cc(C#N)cnn23)cc1N[C@H]1CCC[C@@H]1O [Example 262, 6-(3-cyanopyrrolo[1,2-b]pyridazin-7-yl)-N-((R)-2-fluoro-3-hydroxy-3-methylbutyl)-4-(((1S,2S)-2-hydroxycyclopentyl)amino)nicotinamide]
TNFα
  EC50: 21 nM
IRAK4 enzyme
  IC50: < 1 nM

## CC(C)(O)[C@H](F)CNC(=O)c1cnc(-c2ccc3cc(C#N)cnn23)cc1N[C@@H]1CN2CCC1CC2 [Example 263, 6-(3-cyanopyrrolo[1,2-b]pyridazin-7-yl)-N-((R)-2-fluoro-3-hydroxy-3-methylbutyl)-4-(((S)-quinuclidin-3-yl)amino)nicotinamide]
TNFα
  EC50: 193 nM
IRAK4 enzyme
  IC50: 3 nM

## CC(C)(O)[C@H](F)CNC(=O)c1cnc(-c2ccc3cc(C#N)cnn23)cc1NC1CCC2(CCC(=O)N2)CC1 (stereo partly drawn) [Example 265, 6-(3-cyanopyrrolo[1,2-b]pyridazin-7-yl)-N-((R)-2-fluoro-3-hydroxy-3-methylbutyl)-4-(((5S,8s)-2-oxo-1-azaspiro[4.5]decan-8-yl)amino) nicotinamide]
TNFα
  EC50: 690 nM
IRAK4 enzyme
  IC50: 2 nM

## CC(C)(O)[C@H](F)CNC(=O)c1cnc(-c2ccc3cc(C#N)cnn23)cc1N[C@H]1CN2CCC1CC2 [Example 266, 6-(3-cyanopyrrolo[1,2-b]pyridazin-7-yl)-N-((R)-2-fluoro-3-hydroxy-3-methylbutyl)-4-(((R)-quinuclidin-3-yl)amino)nicotinamide]
TNFα
  EC50: 7590 nM
IRAK4 enzyme
  IC50: 131 nM

## COC(=O)NC12CCC(Nc3cc(-c4ccc5cc(C#N)cnn45)ncc3C(=O)NCC#N)(CC1)CC2 [Example 267, methyl (4-((5-((cyanomethyl)carbamoyl)-2-(3-cyanopyrrolo[1,2-b]pyridazin-7-yl)pyridin-4-yl)amino)bicyclo[2.2.2]octan-1-yl)carbamate]
TNFα
  EC50: 19 nM
IRAK4 enzyme
  IC50: < 1 nM

## COC(=O)N[C@H]1CC[C@H](Nc2cc(-c3ccc4cc(C#N)cnn34)ncc2C(=O)NCC#N)CC1 [Example 268, Methyl ((1R,4R)-4-((5-((cyanomethyl)carbamoyl)-2-(3-cyanopyrrolo[1,2-b]pyridazin-7-yl)pyridin-4-yl)amino)cyclohexyl)carbamate]
TNFα
  EC50: 29 nM
IRAK4 enzyme
  IC50: < 1 nM

## Cc1nnc(N[C@H]2CC[C@H](Nc3cc(-c4ccc5cc(C#N)cnn45)ncc3C(=O)NC[C@@H](F)C(C)(C)O)CC2)o1 [Example 269, 6-(3-cyanopyrrolo[1,2-b]pyridazin-7-yl)-N-((R)-2-fluoro-3-hydroxy-3-methylbutyl)-4-(((1R,4R)-4-((5-methyl-1,3,4-oxadiazol-2-yl)amino)cyclohexyl)amino)nicotinamide]
TNFα
  EC50: 59 nM
IRAK4 enzyme
  IC50: 1 nM

— patent US10336762B2 (priority 2017, dated 2019)
